# Test results from patent US10377774B2 (JINAN UNIVERSITY, priority 2013, dated 2019).
# Marks after values point to notes of the source that are not given here.
# Experiments:
# [1] = system: human liver cancer cell line HepG2; assay: MTT cell growth inhibition, HepG2; type: cell-based; conditions: Homo sapiens; HepG2, MTT assay, 72 h; read-out: IC50, growth of tumor cell line
# From the text: (§2) Experimental method: Cell lines (human non-small-cell lung cancer cell line A549, human colon cancer cell line LOVO, human nasopharyngeal carcinoma cell line CNE-2, human liver cancer cell line HepG2, human cervical carcinoma cell line Hela, human breast cancer cell lines MCF-7 and MDA-MB-231, human gastric carcinoma cell line NCI-N87, human prostatic cancer cell lines PC-3 and DU145, human leukemia cell line K562, human melanoma cell line A375, human neuroblastoma cell line SH-SY5H, human promyelocytic leukemia cell line HL-60, 5-FU-resistant human hepatocellular carcinoma cell line BEL-7402/5-Fu, doxorubicin-resistant hepatocellular carcinoma cell line HepG2/ADM, doxorubicin-resistant human breast cancer cell lines MCF-7/ADR) at logarithmic phase were resuspended in RPMI 1640 medium (containing 10% fetal bovine serum, 100 U/mL penicillin-streptomycin). Then, 100 μL of cells (cell concentration was 5×10^5/mL) were seeded into 96 wells plate. After 24 h incubation at 37° C. with 5% CO2, tested compounds were added (the control group without compound) for an additional 72 h incubation. After that, 30 μL of MTT [3-(4,5-Dimethylthiazol-2-yl)-2,5-diphenyltetrazolium bromide] solution (5 mg/mL) was added into each well and incubated for another 4 h at 37° C. and then the formazan crystals were solubilized with 100 μL DMSO. Finally, absorbance of each well was determined at 570 nm by a microplate reader (Thermo).
# (§3) The concentration required to inhibit cell growth by 50% (IC50) was calculated from survival curves.
# [2] = system: doxorubicin-resistant hepatocellular carcinoma cell line HepG2/ADM; assay: MTT cell growth inhibition, HepG2/ADM; type: cell-based, human; conditions: Homo sapiens, MTT assay, 72 h, read-out: IC50, growth of tumor cell line
# [3] = system: human promyelocytic leukemia cell line HL-60; assay: MTT cell growth inhibition, HL-60; type: cell-based; conditions: Homo sapiens; HL-60, MTT assay, 72 h; read-out: IC50, growth of tumor cell line
# [4] = system: human cervical carcinoma cell line Hela; assay: MTT cell growth inhibition, Hela; type: cell-based; conditions: Homo sapiens, MTT assay, 72 h, read-out: IC50, growth of tumor cell line
# From the text: as §2, §3
# [5] = system: 5-FU-resistant human hepatocellular carcinoma cell line BEL-7402/5-Fu; assay: MTT cell growth inhibition, BEL-7402/5-Fu; type: cell-based; conditions: Homo sapiens, Bel7402/5-FU, MTT assay, 72 h, read-out: IC50, growth of tumor cell line
# From the text: as §2, §3
# [6] = system: HepG2 xenografts; assay: HepG2 xenografts in nude mice; type: in vivo; conditions: HepG2 xenograft nude mice
# How it was run: (§1)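 Female BALB/nu/nu mice received 1×10^7 cells subcutaneously and were randomized at 70–100 mm^3, six per group. Compounds were given at 1 mg/kg i.p. every two days for 8 doses, with saline as control. Tumor volume was calculated as V=½(ab^2), and body weight was monitored.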
# [7] = system: human leukemia cell line K562; assay: MTT cell growth inhibition, K562; type: cell-based; conditions: Homo sapiens; K562, MTT assay, 72 h; read-out: IC50, growth of tumor cell line
# From the text: as §2, §3
# [8] = system: human colon cancer cell line LOVO; assay: MTT cell growth inhibition, LOVO; type: cell-based; conditions: Homo sapiens; LOVO (FAPα positive), MTT assay, 72 h; read-out: IC50, growth of tumor cell line
# From the text: as §2, §3
# [9] = system: human breast cancer cell line MCF-7; assay: MTT cell growth inhibition, MCF-7; type: cell-based; conditions: Homo sapiens, MCF7; MCF-7, MTT assay, 72 h; read-out: IC50, growth of tumor cell line
# [10] = system: human breast cancer cell line MDA-MB-231; assay: MTT cell growth inhibition, MDA-MB-231; type: cell-based; conditions: Homo sapiens; MDA-MB-231, MTT assay, 72 h; read-out: IC50, growth of tumor cell line
# From the text: as §2, §3
# [11] = MTT cytotoxicity on normal cells, HUVEC; conditions: human, HUVEC (human umbilical vein endothelial cells)
# Protocol: (§4) Then, 100 μL of cells (cell concentration was 5×10^5/mL) were seeded into 96 wells plate. After 24 h incubation at 37° C. with 5% CO2, tested compounds were added (the control group without compound) for an additional 72 h incubation. After that, 30 μL of MTT [3-(4,5-Dimethylthiazol-2-yl)-2,5-diphenyltetrazolium bromide] solution (5 mg/mL) was added into each well and incubated for another 4 h at 37° C. and then the formazan crystals were solubilized with 100 μL DMSO. Finally, absorbance of each well was determined at 570 nm by a microplate reader (Thermo).
# (§5) The standard curve was drew with compound concentrations as the abscissa and cell growth inhibition rates as the ordinate. The concentration required to inhibit cell growth by 50% (IC50) was calculated from survival curves.
# (§6) Experimental method: In vitro cytotoxicities of vinca alkaloids, hydrazinolyzed vinca alkaloids and vinca alkaloid dipeptide derivatives on human normal liver cells LO2 and human umbilical vein endothelial cells HUVEC were detected according to the method of Example 2.
# [12] = system: K562 xenografts; assay: K562 xenografts in nude mice; type: in vivo; conditions: K562 xenograft nude mice
# How it was run: as §1
# [13] = system: human nasopharyngeal carcinoma cell line CNE-2; assay: MTT cell growth inhibition, CNE-2; type: cell-based; conditions: Homo sapiens; CNE-2, MTT assay, 72 h; read-out: IC50, growth of tumor cell line
# From the text: as §2, §3
# [14] = system: human prostatic cancer cell line DU145; assay: MTT cell growth inhibition, DU-145; type: cell-based; conditions: Homo sapiens; DU-145, MTT assay, 72 h; read-out: IC50, growth of tumor cell line
# From the text: as §2, §3
# [15] = system: LOVO xenografts; assay: LOVO xenografts in nude mice; type: in vivo; conditions: LOVO xenograft nude mice
# How it was run: as §1
# [16] = system: human non-small-cell lung cancer cell line A549; assay: MTT cell growth inhibition, A549; type: cell-based; conditions: Homo sapiens; A549, MTT assay, 72 h; read-out: IC50, growth of tumor cell line
# [17] = Acute toxicity test; type: in vivo; conditions: mouse, in vivo, ip; Kunming mice, injected intraperitoneally; read-out: LD50 (median lethal dose)
# Protocol: Experimental method: Kunming mice were purchased from Guangdong Medical Experimental Animal Center, weighing 18-22 g, then randomly divided into several groups with 10 mice in each group. Different concentrations of VLB and vinca alkaloid dipeptide derivatives were injected intraperitoneally. Finally, the median lethal dose (LD50) was calculated according to the surviving animals.
# LD50 was measured using the following formula:
# LD50 (mg/kg)=The median lethal dose/body weight
# [18] = system: HL-60 xenografts; assay: HL-60 xenografts in nude mice; type: in vivo; conditions: HL-60 xenograft nude mice
# How it was run: as §1
# [19] = system: human gastric carcinoma cell line NCI-N87; assay: MTT cell growth inhibition, NCI-N87; type: cell-based; conditions: Homo sapiens; NCI-N87, MTT assay, 72 h; read-out: IC50, growth of tumor cell line
# From the text: as §2, §3
# [20] = system: human melanoma cell line A375; assay: MTT cell growth inhibition, A375; type: cell-based; conditions: Homo sapiens, A-375; A375, MTT assay, 72 h; read-out: IC50, growth of tumor cell line
# [21] = MTT cytotoxicity on normal cells, LO2; conditions: human, LO2 cells (human normal liver cells)
# Protocol: as §4, §5, §6
# [22] = system: human neuroblastoma cell line SH-SY5H; assay: MTT cell growth inhibition, SH-SY5H; type: cell-based; conditions: Homo sapiens, Neuroblastoma cell, MTT assay, 72 h, read-out: IC50, growth of tumor cell line
# From the text: as §2, §3
# [23] = system: MDA-MB-231 xenografts; assay: MDA-MB-231 xenografts in nude mice; type: in vivo, BALB/nu/nu mice; conditions: MDA-MB-231 xenograft nude mice
# How it was run: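 Female BALB/nu/nu mice bearing subcutaneous MDA-MB-231 tumours (1×10^7 cells; 70–100 mm^3 at randomisation), six per group. Compounds given at 1 mg/kg i.p. every two days for 8 doses versus saline. Tumour volume (V=½ab^2) and body weight tracked.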
# [24] = 1 mg/kg i.p. every two days, 8 administrations
compound,measurement,setting,value
"CC[C@]1(O)C[C@@H]2CN(CCc3c([nH]c4ccccc34)[C@@](C(=O)OC)(c3cc4c(cc3OC)N(C)[C@H]3[C@@](O)(C(=O)OC)[C@H](OC(C)=O)[C@]5(CC)C=CCN6CC[C@]43[C@@H]65)C2)C1 [Vinblastine, reference compound]",IC50,[1],3.07 ± 0.12 nM
same,IC50,[2],10.1 ± 1.12 nM
same,IC50,[3],5.21 ± 0.84 nM
same,IC50,[4],4.34 ± 0.36 nM
same,IC50,[5],25.8 ± 3.01 nM
same,Anti-tumor rate (%),[6]; 1 mg/kg,42.75* %
same,Body weight (g) Post-dose,[6]; 1 mg/kg,18.2 ± 1.8 g
same,Body weight (g) Pre-dose,[6]; before dosing,21.9 ± 0.7 g
same,IC50,[7],0.72 ± 0.2 nM
same,IC50,[8],1.2 ± 0.24 nM
same,IC50,[9],3.67 ± 1.34 nM
same,IC50,[10],0.81 ± 0.35 nM
same,IC50 at 72 h,[11],0.76 ± 0.13 nM
same,Anti-tumor rate (%),[12]; 1 mg/kg,49.81* %
same,Body weight (g) Post-dose,[12]; 1 mg/kg,17.4 ± 0.4 g
same,Tumor weight,[12]; 1 mg/kg,0.86 ± 0.10 g
same,Body weight (g) Pre-dose,[12]; before dosing,21.9 ± 0.7 g
same,IC50,[13],1.03 ± 0.07 nM
same,IC50,[14],0.78 ± 0.31 nM
same,Anti-tumor rate (%),[15]; 1 mg/kg,44.60* %
same,Body weight (g) Post-dose,[15]; 1 mg/kg,19.6 ± 1.5 g
same,Tumor weight,[15]; 1 mg/kg,1.59 ± 0.51 g
same,Body weight (g) Pre-dose,[15]; before dosing,23.1 ± 1.4 g
same,IC50,[16],2.31 ± 0.13 nM
same,LD50,[17],4 mg/kg
same,Anti-tumor rate (%),[18]; 1 mg/kg,52.89** %
same,Body weight (g) Post-dose,[18]; 1 mg/kg,16.2 ± 0.7 g
same,Tumor weight,[18]; 1 mg/kg,0.98 ± 0.25 g
same,Body weight (g) Pre-dose,[18]; before dosing,19.4 ± 1.0 g
same,IC50,[19],2.23 ± 0.43 nM
same,IC50,[20],3.24 ± 0.39 nM
same,IC50 at 72 h,[21],0.34 ± 0.07 nM
same,IC50,[22],6.13 ± 0.51 nM
same,Anti-tumor rate (%),[23]; [24],53.26** %
same,Body weight (g) Post-dose,[23]; [24],18.3 ± 2.4 g
same,Tumor weight,[23]; [24],1.22 ± 0.35 g
same,Body weight (g) Pre-dose,[23]; before dosing,20.7 ± 1.4 g
